Reference: US9865819B2, “Nitrogen annulated perylene diimides for use as electron transport materials in organic electronic devices” (UTI Limited Partnership, priority 2016, dated 2018)
≈ marks a conversion by molar mass, not a printed value.

Key:
[1] = Solubility in CHCl3 by UV-vis absorbance calibration curve; assay type: physicochemical; settings: room temperature, 50 mg/mL samples stirred overnight, 0.45 μm filtered, diluted 2000x, Beer-Lambert; for solubility: CHCl3, organic solvent or mixture, thermodynamic from solid
Description: FIG. 2 is a concentration vs absorption plot for determining the solubility of compounds (5) and (7) in CHCl3. A calibration curve was made for each compound by plotting absorbance values of known concentrations. (Dotted lines). In order to determine solubility, compounds (5) and (7) were made into solutions having 50 mg/mL concentration, allowed to stir overnight and then passed through a 0.45 μm syringe filter to remove any undissolved solids. The obtained solutions were then diluted by a factor of 2000 so that their absorbance was in the range of values used for the calibration curves. By using the Beer-Lambert law and the slope of the respective curves, it was determined that the solubility of both (5) and (7) was ˜50 mg/mL. This observation is confirmed by the apparent complete dissolution of 50 mg/mL samples of either (5) or (7) in CHCl3.
With the N annulated PDI derivatives (4), (5) and (7) in hand we set out to study their optical electronic and solubility characteristics. The N-annulated PDI materials bear an extra site for alkyl chain functionalization which was envisioned to modify the solubility and self-assembly characteristics of the materials with respect to the parent PDI compound (2). […] This assertion is supported by ^1H NMR evidence showing that the N—H proton becomes more deshielded upon increasing the solution concentration, typically observed for hydrogen bonding interactions (not shown). […] [54] Importantly, such high organic solvent solubility is achieved without the need for long branched alkyl chains attached to the imide N atoms, chains that are used for almost all reported multi-PDI based materials. Thus, one can envision a wide array of alkyl chains being installed to fine-tune molecular assembly in the solid state, following the so-called “side chain engineering” methodology.

[2] = Thermal stability by TGA analysis; assay type: physicochemical
Description: The melting points of compounds (4), (5), and (7) were also determined and provide support for the assertion that compound (4) experiences intermolecular hydrogen bonding interactions. […] Dimerization improves thermal stability.

| SMILES | solubility [1] [mg/mL] | melting point [°C] | solubility in CHCl3 [1] [mg/mL] | thermally stable up to / decomposition temperature (TGA) [2] [°C] |
| --- | --- | --- | --- | --- |
| CCC(CC)n1c(=O)c2ccc3c4ccc5c(=O)n(C(CC)CC)c(=O)c6cc7[nH]c8cc(c1=O)c2c3c8c7c4c56 [Compound 4, EP-NH-CAG-PDI] | < 1 | 235 |  |  |
| CCCCCCn1c2cc3c(=O)n(C(CC)CC)c(=O)c4ccc5c6ccc7c(=O)n(C(CC)CC)c(=O)c8cc1c(c6c78)c2c5c43 [Compound 5, EP-N-Hex-CAG-PDI] | > 50 |  | ~50 (≈ 79.6 mM) |  |
| CCCCCCn1c2cc3c(=O)n(C(CC)CC)c(=O)c4ccc5c6c(-c7cc8c(=O)n(C(CC)CC)c(=O)c9cc%10c%11c(c7c7ccc%12c(=O)n(C(CC)CC)c(=O)c%13cc(c%11c7c%12%13)n%10CCCCCC)c89)cc7c(=O)n(C(CC)CC)c(=O)c8cc1c(c6c78)c2c5c43 [Compound 7, BAY-EP-N-Hex-CAG-PDI] | > 50 |  | ~50 (≈ 39.9 mM) | ~425 |
